Six compounds from US20080300232A1, “N-Piperidine Derivatives as Ccr3 Modulators” (ASTRAZENECA AB, priority 2004, published 2008) can be followed below.

The target in one assay is T1, recombinant hMCHr (Homo sapiens, UniProt Q99705).
T1 construct: purchased Euroscreen
Briefly: MCH1 functional assay ([35S]GTPγS binding, membranes with recombinant hMCHr). It is filed as biochemical. To be noted: ED80 concentration of MCH, 45 min at 30° C., read-out: IC50 of antagonists in MCH1 functional assay. Here is the method: Membranes expressing recombinant hMCHr (5.45 pmol/mg protein; Euroscreen) were prepared in assay buffer (50 mM HEPES, 100 mM NaCl, 5 mM MgCl2, 1 mM EDTA, 200 μM DTT, 20 μM GDP (Sigma) containing 0.1 μg/ml BSA, pH7.4) before assay. The assays were performed using membranes at 6 μg/well in an assay volume of 200 μl and the appropriate concentrations of compounds prepared in DMSO. The reaction was started by addition of 0.056 nM [^35S]GTPγS (Specific activity >1000 Ci/mmol; Amersham) and an ED80 concentration of MCH (determined for each membrane and each MCH batch). Non-specific binding was determined using 20 μM non-radiolabelled GTPγS. Plates were incubated for 45 min at 30° C. Free and bound GTPγS were separated by filtration binding using GF/B filter mats presoaked in wash buffer (50 mM Tris, 5 mM MgCl2, 50 mM NaCl, pH 7.4) using a Micro96 cell harvester (Skatron Instruments) and the filters then dried at 50° C. before counting using al450 Microbeta TRILUX (Wallac).
Data are means ±SD for experiments performed in triplicate. IC50 values of antagonists were determined using non-linear regression analysis of concentration response curves using Activity Base.

The target of assay [1] is T2, human Melanin concentrating hormone receptor 1 (MCH1r) (Homo sapiens, UniProt Q99705).
T2 construct: expressed in transfected cells; host or cells: CHO-K1
Briefly: MCH1 receptor radioligand binding (125I-MCH, CHO-K1 cell membranes). To be noted: CHO-K1 membranes expressing human MCH1r, 30° C., 60 minutes, read-out: IC50 in human MCHr binding assay. Here is the method: MCH1 Receptor Radioligand Binding.
Assays were performed on membranes prepared from CHO—K1 cells expressing the human Melanin concentrating hormone receptor 1 (MCH1r). Assays were performed in a 96-well plate format in a final reaction volume of 200 μl per well. Each well contained 6 μg of membrane proteins diluted in binding buffer (50 mM Tris, 3 mM MgCl2, 0.05% bovine serum albumin and the radioligand ^125I-MCH (IM344 Amersham) was added to give 10 000 cpm (counts per minute) per well. Each well contained 2 μl of the appropriate concentration of competitive antagonist prepared in DMSO and left to stand at 30° C. for 60 minutes. Non-specific binding was determined as that remaining following incubation with 1 μM MCH (Melanin concentrating hormone, H-1482 Bachem). The reaction was terminated by transfer of the reaction to GF/A filters using a Micro96 Harvester (Skatron Instruments, Norway). Filters were washed with assay buffer. Radioligand retained on the filters was quantified using al450 Microbeta TRILUX (Wallac, Finland).
Non-specific binding was subtracted from all values determined. Maximum binding was that determined in the absence of any competitor following subtraction of the value determined for non-specific binding. Binding of compounds at various concentrations was plotted according to the equation
and IC50 estimated where A is the bottom plateau of the curve i.e. the final minimum y value B is the top of the plateau of the curve i.e. the final maximum y value C is the x value at the middle of the curve. This represents the log EC50 value when A+B=100 D is the slope factor. x is the original known x values. y is the original known y values.

The subject of another assay is Male Wistar-Hanover rats. Briefly: Pharmacodynamic effect in rat (food intake and body weight after fasting). It is filed as in vivo. To be noted: 16.7 μmol/kg i.p. amorphous nanoparticle formulation, time interval 0-4 h. Here is the method: Pharmacodynamic Effect in Rat
Male Wistar-Hanover rats (Charles River, 300-350 grams) were acclimated to individually housing in conventional cages (Makrolon III) with 12:12 hour light-dark photoperiod (lights on at 06.00) in a temperature (20-22° C.) and humidity (40-60%) controlled room. R-3 lab chow (Lactanin, Vadstena, Sweden) and tap water from bottles were allowed ad libidum. At 16.00 on the day before experiments, animals were weighed & food (but not water) was removed. At 08.00 on experiment day, animals were weighed & compound (i.p. amorphous nanoparticle formulation, 5 ml/kg) or vehicle (3-10% DMA depending on compound formulation) administered. Animals were returned to their home cages & given access to a weighed amount of food. This food was then re-weighed 1, 2, 4, 6 & 24 hours later, and food consumption calculated by the difference from initial food weight.
Animals were further weighed at the 24-hr timepoint, and change in body weight over the treatment period was calculated.

T1 sequence (Q99705 whole entry): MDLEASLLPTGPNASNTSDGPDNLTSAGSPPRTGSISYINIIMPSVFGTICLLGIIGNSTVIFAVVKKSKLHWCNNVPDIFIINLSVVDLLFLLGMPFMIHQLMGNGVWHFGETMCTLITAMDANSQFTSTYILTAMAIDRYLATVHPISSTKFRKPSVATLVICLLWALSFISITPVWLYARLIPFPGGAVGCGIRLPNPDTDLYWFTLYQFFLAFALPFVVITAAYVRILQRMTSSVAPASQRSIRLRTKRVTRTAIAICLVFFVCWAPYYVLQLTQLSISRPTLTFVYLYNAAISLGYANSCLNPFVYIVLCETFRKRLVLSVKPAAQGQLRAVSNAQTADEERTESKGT
T2 sequence (Q99705 whole entry): as above

In the case of `COc1ccc(-n2ccc(CN3CCC(NC(=O)COc4cccc(Cl)c4)CC3)c2)cc1` [Example 3, 2-(3-chlorophenoxy)-N-({[1-(4-methoxyphenyl)-1H-pyrrol-3-yl]methyl}piperidin-4-yl)acetamide], the IC50 was determined as 45 nM on recombinant hMCHr and 167 nM in assay [1]. Take `O=C(COc1cccc(Cl)c1)NC1CCN(Cc2ccc(-c3ccc(Cl)cc3)o2)CC1` [Example 8, 2-(3-chlorophenoxy)-N-(1-{[5-(4-chlorophenyl)-2-furyl]methyl}piperidin-4-yl)acetamide]: the IC50 at recombinant hMCHr was determined as 111 nM; in assay [1], 105 nM. On to `O=C(CCc1cccc(Cl)c1)NC1CCN(Cc2ccn(-c3ccc(C(F)(F)F)cc3)c2)CC1` [Example 29, 3-(3-chlorophenyl)-N-[1-({1-[4-(trifluoromethyl)phenyl]-1H-pyrrol-3-yl}methyl)piperidin-4-yl]propanamide], for which the concentration for half-maximal inhibition (IC50) (on recombinant hMCHr; in assay [1]) was 66 nM each time. In the case of `N#Cc1ccccc1OCC(=O)NC1CCN(Cc2ccn(-c3ccc(C(F)(F)F)cc3)c2)CC1` [Example 34, 2-(2-cyanophenoxy)-N-[1-({1-[4-(trifluoromethyl)phenyl]-1H-pyrrol-3-yl}methyl)piperidin-4-yl]acetamide], the reduced food intake with Male Wistar-Hanover rats stood at 20%. Turning to `O=C(COc1cccc(Cl)c1)NC1CN(Cc2ccn(-c3ccc(C(F)(F)F)cc3)c2)C1` [Example 41, 2-(3-chlorophenoxy)-N-[1-({1-[4-(trifluoromethyl)phenyl]-1H-pyrrol-3-yl}methyl)azetidin-3-yl]acetamide], in assay [1], the IC50 is 39 nM. `O=C(COc1ccc(F)c(F)c1)NC1CCN(Cc2ccn(-c3ccc(C(F)(F)F)cc3)c2)C1` (stereo not drawn) [Example 44, 2-(3,4-difluorophenoxy)-N-[1-({1-[4-(trifluoromethyl)phenyl]-1H-pyrrol-3-yl}methyl)pyrrolidin-3-yl]acetamide]: in assay [1], the IC50 came out at 27 nM.
